Source: ChEMBL document CHEMBL1201862, “PubChem BioAssay data set” (2004)
Activity calls are given as the source filed them.

How the values were obtained:
[1] = Fluorescence polarization-based biochemical high throughput dose response assay for activators of the Protein Kinase A-R1A (PKA-R1A) complex. [Related pubchem assays (depositor defined):AID504704, AID504707, AID504799, AID504800]
[2] = Fluorescence polarization-based biochemical high throughput dose response assay for activators of the Protein Kinase A-R2B (PKA-R2B) complex. [Related pubchem assays (depositor defined):AID504700, AID504704, AID504796, AID504797]
[3] = target: Beta-adrenergic receptor kinase 1 (Homo sapiens, UniProt P25098); experiment: aptamer displacement from bead-bound GRK2 – biochemical, cherry pick 1, bead flow cytometry, dose response (AID 504500)
Sequence of Beta-adrenergic receptor kinase 1 (P25098 whole entry): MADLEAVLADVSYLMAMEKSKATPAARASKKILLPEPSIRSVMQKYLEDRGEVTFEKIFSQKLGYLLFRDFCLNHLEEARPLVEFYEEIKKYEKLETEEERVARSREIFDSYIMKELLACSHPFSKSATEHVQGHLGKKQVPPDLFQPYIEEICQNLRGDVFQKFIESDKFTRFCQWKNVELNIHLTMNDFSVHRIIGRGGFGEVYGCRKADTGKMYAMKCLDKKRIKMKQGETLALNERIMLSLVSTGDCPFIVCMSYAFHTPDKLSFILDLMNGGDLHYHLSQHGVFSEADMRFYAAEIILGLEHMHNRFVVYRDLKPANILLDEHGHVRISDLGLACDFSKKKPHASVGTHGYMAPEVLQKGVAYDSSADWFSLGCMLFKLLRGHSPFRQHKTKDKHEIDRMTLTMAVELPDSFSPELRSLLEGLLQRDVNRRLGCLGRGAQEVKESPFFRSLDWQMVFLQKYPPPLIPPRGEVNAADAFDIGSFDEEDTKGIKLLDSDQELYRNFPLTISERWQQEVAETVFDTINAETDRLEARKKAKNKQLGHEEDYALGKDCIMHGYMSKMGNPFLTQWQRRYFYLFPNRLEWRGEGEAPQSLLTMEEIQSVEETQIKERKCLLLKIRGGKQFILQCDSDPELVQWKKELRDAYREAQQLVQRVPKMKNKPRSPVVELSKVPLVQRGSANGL

[4] = target: Beta-2 adrenergic receptor (Homo sapiens, UniProt P07550); experiment: beta2AR agonists driving receptor internalization, dose response, cell-based, FAP fluorogen, flow cytometry, cherry pick 1 (AID 588763); format: functional
Sequence of Beta-2 adrenergic receptor (P07550 whole entry): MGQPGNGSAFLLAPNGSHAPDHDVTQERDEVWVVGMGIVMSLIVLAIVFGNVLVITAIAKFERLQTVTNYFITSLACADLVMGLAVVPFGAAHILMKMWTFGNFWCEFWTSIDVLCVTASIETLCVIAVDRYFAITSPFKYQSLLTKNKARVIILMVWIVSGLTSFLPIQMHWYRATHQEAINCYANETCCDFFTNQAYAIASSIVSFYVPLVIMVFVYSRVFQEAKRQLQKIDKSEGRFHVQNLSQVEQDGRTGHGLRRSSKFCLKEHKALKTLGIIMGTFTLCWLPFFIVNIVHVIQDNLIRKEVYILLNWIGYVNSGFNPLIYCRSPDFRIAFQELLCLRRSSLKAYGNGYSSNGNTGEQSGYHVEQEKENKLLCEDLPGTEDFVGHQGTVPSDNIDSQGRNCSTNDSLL

[5] = Luminescence Cell-Based Dose Response HTS to Identify Inhibitors of 5'UTR Stem-Loop Driven Prion Protein mRNA Translation in H4 Neuroglioblastoma Cells. [Related pubchem assays: 1827 (Project Summary), 1813 (Primary HTS)]; format: functional
[6] = target: Luciferin 4-monooxygenase (Photuris pensylvanica, UniProt Q27757); experiment: firefly luciferase enzyme inhibitors, dose response, counter-screen for HSF-1 reporter inhibitor project, biochemical, Cell Titer Glo, luminescence, cherry-picks (AID 588847)
[7] = inhibitors of SNCA 5'UTR-driven translation, confirmation, luminescence, H4 neuroglioblastoma cells, dose confirmation (AID 2454); format: functional, cell-based;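 note: H4 neuroglioblastoma cells carrying an alpha-synuclein 5'UTR luciferase reporter; potency for inhibition of the luciferase signal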
[8] = target: T1, Heat shock factor protein 1 (Mus musculus, UniProt P38532); experiment: inhibition of MG132-induced HSE-luciferase signal, confirmation, cell-based, NIH3T3, luminescence, dose retest (AID 2382); format: functional;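 note: NIH3T3 fibroblasts with HSF1-driven luciferase reporter stressed by proteasome inhibitor MG132; luminescence from HSF1-driven luciferase expression after 8 hours of MG132 stress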
T1 sequence (P38532 whole entry): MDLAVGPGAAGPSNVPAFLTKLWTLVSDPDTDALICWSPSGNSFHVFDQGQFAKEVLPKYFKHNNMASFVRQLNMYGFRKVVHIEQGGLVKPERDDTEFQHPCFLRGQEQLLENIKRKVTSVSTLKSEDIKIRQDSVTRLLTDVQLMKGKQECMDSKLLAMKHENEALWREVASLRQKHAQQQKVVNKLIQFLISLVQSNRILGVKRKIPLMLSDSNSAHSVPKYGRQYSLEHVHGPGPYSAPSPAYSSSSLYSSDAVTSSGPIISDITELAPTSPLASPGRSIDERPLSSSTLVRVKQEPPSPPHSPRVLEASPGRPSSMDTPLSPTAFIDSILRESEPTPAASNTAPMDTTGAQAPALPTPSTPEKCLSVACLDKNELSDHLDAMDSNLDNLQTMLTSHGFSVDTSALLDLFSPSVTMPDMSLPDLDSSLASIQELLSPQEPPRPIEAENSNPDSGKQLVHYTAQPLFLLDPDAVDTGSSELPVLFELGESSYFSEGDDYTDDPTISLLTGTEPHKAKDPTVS

[9] = luciferase reporter signal reduction – luminescence, H4-C neuroglioblastoma cells, dose response (AID 2458); format: functional, cell-based;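 note: H4 neuroglioblastoma cells stably carrying a luciferase reporter gene fusion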
cells = format: functional, cell-based
[10] = HepG2 cell cytotoxicity, dose response, cytotoxicity control for Shn3 inhibitor project, CellTiter-Glo, cherry-picked (AID 624134); format: functional, cell-based
[11] = inhibitors of firefly luciferase expression or activity, dose response, H4 neuroglioma cells, luminescence (AID 1990); format: functional, cell-based
[12] = Shn3 3'UTR reporter inhibitors, dose response, cell-based, Clone20 osteoblasts, firefly luciferase, cherry-picked (AID 624132); format: functional;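 note: firefly luciferase luminescence from reporter carrying the Shn3 3'UTR in osteoblasts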
[13] = inhibitors of SNCA 5'UTR-driven reporter translation, confirmation, H4 neuroglioma cells, luminescence (AID 1988); format: functional, cell-based
[14] = control 3'UTR Renilla luciferase suppression, dose response, counter-screen for Shn3 inhibitor project, cell-based, Clone20-Shn3RL, cherry-picked (AID 624133); format: functional
[15] = HepG2 cell cytotoxicity, dose response, cytotoxicity control, plate reader, cherry-pick, antagonist series (AID 743416); format: functional, cell-based
HEK293 = experiment: cells; format: functional, cell-based; settings: Homo sapiens
[16] = LGR2 antagonists, dose response, cell-based, HEK293, CRE-luciferase reporter, cherry pick, set 2 (AID 743343); format: functional;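 note: transfected cells were stimulated with diluted bursicon conditioned medium after compound addition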
[17] = MC4R antagonists, dose response, counter-screen for LGR2 antagonist project, cell-based, plate reader, cherry pick (AID 743444); format: functional;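 note: transfected HEK 293 cells stimulated with alpha-MSH peptide; potency of inhibitors of the alpha-MSH evoked signal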
[18] = target: T2, Nuclear receptor subfamily 0 group B member 1 (Homo sapiens, UniProt P51843); experiment: Luminescence-based cell-based high throughput dose response assay for inhibitors of the orphan nuclear receptor subfamily 0, group B, member 1 (DAX1; NR0B1). [Related pubchem assays (depositor defined):AID504766, AID504790]; format: functional
T2 sequence (P51843 whole entry): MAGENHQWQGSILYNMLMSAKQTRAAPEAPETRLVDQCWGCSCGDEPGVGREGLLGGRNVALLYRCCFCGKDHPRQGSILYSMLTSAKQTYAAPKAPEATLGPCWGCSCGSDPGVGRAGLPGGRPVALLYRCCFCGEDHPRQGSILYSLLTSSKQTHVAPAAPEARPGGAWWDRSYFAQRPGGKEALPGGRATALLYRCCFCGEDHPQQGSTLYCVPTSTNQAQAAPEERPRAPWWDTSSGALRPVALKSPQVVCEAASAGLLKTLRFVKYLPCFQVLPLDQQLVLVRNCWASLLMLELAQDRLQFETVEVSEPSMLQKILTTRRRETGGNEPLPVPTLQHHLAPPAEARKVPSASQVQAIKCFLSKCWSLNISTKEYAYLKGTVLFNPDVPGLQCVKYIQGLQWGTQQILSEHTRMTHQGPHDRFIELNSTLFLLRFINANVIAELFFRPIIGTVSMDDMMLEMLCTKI

[19] = target: Glycogen synthase kinase-3 alpha (Homo sapiens, UniProt P49840); experiment: Inhibition of Human GSK-3 alpha Activity Measured in Biochemical System Using Microfluidics - 2063-06_Inhibitor_Dose_DryPowder_Activity. [Related pubchem assays (depositor defined):AID2709]
Sequence of Glycogen synthase kinase-3 alpha (P49840 whole entry): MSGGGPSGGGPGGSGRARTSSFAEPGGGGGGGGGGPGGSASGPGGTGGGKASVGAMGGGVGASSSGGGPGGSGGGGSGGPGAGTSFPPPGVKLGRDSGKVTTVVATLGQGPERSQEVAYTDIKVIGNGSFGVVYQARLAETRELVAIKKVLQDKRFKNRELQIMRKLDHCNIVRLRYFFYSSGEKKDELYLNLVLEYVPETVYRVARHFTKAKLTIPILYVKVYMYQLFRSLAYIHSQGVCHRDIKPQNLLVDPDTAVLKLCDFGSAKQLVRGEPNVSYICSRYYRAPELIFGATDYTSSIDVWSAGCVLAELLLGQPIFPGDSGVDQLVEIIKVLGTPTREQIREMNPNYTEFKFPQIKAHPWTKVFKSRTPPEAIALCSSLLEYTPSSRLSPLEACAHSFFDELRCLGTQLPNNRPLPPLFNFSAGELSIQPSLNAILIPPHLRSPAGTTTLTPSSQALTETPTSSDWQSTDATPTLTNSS

[20] = target: Glycogen synthase kinase-3 beta (Homo sapiens, UniProt P49841); experiment: Inhibition of Human GSK-3 beta Activity Measured in Biochemical System Using Microfluidics - 2063-05_Inhibitor_Dose_DryPowder_Activity. [Related pubchem assays (depositor defined):AID2709]
Sequence of Glycogen synthase kinase-3 beta (P49841 whole entry): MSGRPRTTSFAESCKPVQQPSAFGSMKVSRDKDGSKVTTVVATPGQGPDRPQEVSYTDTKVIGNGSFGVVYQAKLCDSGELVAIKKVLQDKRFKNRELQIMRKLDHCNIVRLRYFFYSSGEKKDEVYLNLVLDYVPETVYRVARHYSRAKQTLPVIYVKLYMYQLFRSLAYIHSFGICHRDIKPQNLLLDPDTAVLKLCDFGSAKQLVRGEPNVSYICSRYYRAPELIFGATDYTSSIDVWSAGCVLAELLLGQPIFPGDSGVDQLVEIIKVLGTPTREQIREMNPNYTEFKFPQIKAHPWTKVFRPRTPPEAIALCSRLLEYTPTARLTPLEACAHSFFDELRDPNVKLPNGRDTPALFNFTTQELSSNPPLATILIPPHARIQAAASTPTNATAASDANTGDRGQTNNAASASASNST

[21] = target: Voltage-gated inwardly rectifying potassium channel KCNH2 (Homo sapiens, UniProt Q12809); settings: Potency;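 note: confirmatory quantitative high-throughput screen measuring inhibition of hERG channel activity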
Sequence of Voltage-gated inwardly rectifying potassium channel KCNH2 (Q12809 whole entry): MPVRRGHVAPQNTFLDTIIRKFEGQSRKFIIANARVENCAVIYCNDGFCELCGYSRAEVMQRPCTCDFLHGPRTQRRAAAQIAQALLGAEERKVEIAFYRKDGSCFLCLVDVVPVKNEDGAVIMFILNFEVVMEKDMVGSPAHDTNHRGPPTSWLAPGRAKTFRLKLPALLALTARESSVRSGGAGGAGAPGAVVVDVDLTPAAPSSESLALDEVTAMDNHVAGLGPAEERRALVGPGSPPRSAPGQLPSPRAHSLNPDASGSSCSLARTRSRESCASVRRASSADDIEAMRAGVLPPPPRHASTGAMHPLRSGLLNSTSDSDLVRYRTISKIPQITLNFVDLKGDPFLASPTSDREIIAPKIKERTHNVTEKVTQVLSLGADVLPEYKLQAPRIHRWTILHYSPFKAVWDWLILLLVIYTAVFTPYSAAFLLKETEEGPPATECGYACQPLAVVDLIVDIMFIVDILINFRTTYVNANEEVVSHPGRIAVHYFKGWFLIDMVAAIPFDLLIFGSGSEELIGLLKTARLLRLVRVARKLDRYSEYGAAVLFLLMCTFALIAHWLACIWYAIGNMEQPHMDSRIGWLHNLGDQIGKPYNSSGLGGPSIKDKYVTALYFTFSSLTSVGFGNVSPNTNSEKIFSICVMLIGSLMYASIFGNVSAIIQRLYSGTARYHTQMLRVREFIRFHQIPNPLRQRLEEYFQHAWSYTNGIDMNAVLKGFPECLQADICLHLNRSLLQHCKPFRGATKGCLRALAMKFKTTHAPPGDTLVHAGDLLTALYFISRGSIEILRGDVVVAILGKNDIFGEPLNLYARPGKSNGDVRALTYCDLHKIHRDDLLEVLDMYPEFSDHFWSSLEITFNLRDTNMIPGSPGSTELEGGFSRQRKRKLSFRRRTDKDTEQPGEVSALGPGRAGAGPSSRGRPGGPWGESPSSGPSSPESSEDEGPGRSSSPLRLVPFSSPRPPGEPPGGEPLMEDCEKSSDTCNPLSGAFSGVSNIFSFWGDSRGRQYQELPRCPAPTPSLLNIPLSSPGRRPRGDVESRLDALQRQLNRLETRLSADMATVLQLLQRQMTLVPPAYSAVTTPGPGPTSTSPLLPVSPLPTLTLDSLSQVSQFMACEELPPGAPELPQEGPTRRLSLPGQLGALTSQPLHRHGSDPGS

Beta-arrestin-1 = Beta-arrestin-1 (Homo sapiens, UniProt P49407); experiment: inhibitors of arrestin peptide binding to AP2, dose response, biochemical, cherry pick 1, beta2-adaptin appendage, flow cytometry (AID 588783); format: functional
Streptokinase A = target: T3, Streptokinase A (Streptococcus pyogenes serotype M1, UniProt P10520); experiment: S. pyogenes streptokinase expression inhibitors, potency, dose response, plasminogen activation absorbance, OD405 (AID 1914); format: functional, Streptococcus pyogenes M1 GAS;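 note: secreted streptokinase activity via plasminogen activation per viability signal from cell pellet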
T3 sequence (P10520 whole entry): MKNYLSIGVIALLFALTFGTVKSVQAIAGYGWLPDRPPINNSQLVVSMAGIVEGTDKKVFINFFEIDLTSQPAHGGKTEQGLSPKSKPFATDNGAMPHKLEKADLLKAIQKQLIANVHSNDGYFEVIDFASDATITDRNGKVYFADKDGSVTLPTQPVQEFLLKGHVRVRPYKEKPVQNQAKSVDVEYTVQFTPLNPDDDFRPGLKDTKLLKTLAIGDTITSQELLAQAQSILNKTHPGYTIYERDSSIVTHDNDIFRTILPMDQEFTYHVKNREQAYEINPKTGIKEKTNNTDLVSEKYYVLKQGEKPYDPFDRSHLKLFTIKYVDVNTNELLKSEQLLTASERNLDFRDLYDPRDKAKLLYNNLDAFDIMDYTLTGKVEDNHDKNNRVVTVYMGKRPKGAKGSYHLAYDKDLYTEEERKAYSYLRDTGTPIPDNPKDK

Streptococcus = experiment: Group A Streptococcus viability loss, dose response, counter-screen for streptokinase expression inhibitor project, luminescence, BacTiterGlo (AID 1915); format: functional, organism-based;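 note: potency for reduction of bacterial viability or growth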
[22] = test system: Streptococcus sp. 'group A'; experiment: growth inhibition of control SK(-) GAS strain, dose response, counter-screen for streptokinase expression inhibitor project, luminescence, kanamycin, BacTiterGlo, confirmation (AID 1900); format: functional, organism-based
Beta-galactosidase = Beta-galactosidase (Escherichia coli, UniProt Q8VNN2); experiment: PubChem AID 485352; format: functional
Sequence of Beta-galactosidase (Q8VNN2 whole entry): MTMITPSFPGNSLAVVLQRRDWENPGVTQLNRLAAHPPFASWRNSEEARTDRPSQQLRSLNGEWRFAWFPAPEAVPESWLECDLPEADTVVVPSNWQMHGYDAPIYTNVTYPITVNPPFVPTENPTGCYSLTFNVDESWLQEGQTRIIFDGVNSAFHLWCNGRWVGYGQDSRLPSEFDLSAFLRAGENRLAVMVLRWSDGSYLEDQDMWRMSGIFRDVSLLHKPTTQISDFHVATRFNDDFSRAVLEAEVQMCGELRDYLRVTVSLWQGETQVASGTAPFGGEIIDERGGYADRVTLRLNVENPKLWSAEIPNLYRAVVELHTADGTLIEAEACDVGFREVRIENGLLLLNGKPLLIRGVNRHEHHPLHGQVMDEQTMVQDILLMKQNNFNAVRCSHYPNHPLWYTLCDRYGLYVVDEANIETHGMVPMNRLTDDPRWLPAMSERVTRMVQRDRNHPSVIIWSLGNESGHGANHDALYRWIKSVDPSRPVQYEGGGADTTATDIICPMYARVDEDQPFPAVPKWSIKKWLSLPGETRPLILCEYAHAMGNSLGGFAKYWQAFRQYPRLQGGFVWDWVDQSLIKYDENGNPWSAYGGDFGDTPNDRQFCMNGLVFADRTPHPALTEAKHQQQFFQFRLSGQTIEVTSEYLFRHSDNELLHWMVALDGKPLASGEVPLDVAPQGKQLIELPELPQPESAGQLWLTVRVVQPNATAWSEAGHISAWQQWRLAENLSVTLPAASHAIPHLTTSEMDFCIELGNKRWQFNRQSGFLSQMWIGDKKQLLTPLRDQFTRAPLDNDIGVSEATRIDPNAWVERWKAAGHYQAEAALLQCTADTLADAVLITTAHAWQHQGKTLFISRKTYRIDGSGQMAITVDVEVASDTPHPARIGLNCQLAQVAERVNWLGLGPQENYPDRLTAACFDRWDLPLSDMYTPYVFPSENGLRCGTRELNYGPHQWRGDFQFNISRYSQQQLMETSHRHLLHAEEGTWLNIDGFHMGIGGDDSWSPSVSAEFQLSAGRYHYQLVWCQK

[23] = target: T4, Type-1 angiotensin II receptor (Homo sapiens, UniProt P30556); experiment: AT1 receptor antagonists, dose response, selectivity assay for APJ receptor antagonist project, cell-based, uHTS hits (AID 463214); format: functional;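 note: antagonist potency against angiotensin II stimulated AT1 response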
T4 sequence (P30556 whole entry): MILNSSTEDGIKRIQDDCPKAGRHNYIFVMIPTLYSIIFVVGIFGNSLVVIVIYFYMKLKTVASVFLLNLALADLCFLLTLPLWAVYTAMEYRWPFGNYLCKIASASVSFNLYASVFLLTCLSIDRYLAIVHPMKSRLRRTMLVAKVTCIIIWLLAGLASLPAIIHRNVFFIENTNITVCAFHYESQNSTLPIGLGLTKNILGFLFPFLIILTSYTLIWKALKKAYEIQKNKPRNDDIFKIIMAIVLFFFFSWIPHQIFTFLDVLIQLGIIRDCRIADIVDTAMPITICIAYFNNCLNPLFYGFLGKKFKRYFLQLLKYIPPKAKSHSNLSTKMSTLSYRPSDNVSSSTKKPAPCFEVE

DNA topoisomerase = DNA topoisomerase (Yersinia pestis, UniProt A0A2S9PM60); experiment: Y. pestis Topo-I inhibitors, cleavage product readout, dose response, biochemical, cherry-pick (AID 588525)
Sequence of DNA topoisomerase (A0A2S9PM60 whole entry): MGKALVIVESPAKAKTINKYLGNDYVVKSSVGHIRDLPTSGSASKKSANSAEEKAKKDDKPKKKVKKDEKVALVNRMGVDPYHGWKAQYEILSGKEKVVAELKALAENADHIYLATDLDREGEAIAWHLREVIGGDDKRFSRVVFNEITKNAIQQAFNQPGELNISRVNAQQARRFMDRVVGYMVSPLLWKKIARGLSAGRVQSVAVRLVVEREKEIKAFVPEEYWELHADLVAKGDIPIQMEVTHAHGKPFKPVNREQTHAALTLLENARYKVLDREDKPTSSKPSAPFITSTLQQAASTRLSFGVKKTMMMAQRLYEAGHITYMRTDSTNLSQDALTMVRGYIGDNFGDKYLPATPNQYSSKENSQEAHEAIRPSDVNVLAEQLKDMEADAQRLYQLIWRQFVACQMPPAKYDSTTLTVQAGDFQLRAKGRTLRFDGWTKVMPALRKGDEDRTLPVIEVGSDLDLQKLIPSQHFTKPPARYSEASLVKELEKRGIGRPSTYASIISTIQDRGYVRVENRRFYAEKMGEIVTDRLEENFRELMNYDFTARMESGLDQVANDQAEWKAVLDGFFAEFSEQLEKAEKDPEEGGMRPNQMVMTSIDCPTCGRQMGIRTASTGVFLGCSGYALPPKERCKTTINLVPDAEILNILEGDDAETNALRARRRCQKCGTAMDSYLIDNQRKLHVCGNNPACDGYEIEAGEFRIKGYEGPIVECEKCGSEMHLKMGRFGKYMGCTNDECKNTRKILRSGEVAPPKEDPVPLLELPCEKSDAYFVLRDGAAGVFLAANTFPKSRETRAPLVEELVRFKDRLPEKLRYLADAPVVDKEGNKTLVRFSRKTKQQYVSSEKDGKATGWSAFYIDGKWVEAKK

## Nc1ncnc2c1nc(Sc1ccc(Cl)cc1)n2[C@@H]1O[C@@H]2COP(=O)(O)O[C@H]2[C@H]1O
[1]
  EC50: 0.0327 µM (active)
[2]
  EC50: 0.0505 µM (active)

## CCCCCC(=O)Nc1cccc(C2=NOC3(C2)C[C@@H](C(N)=O)N(C(=O)c2ccc(OC)cc2)C3)c1 (stereo not given in full)
[3]
  EC50: 4.38 µM (active)

## CC(=O)N1c2ccccc2C(C)(c2ccccc2)CC1(C)C (stereo not given)
[4]
  EC50: 9.29 µM (active)

## O=c1c2ccccc2sc2ccc(C#CC3(O)CCCCC3)cc12
[5]
  EC50: < 0.1 µM (active)
[6]
  AC50: 0.555 µM (active)
[7]
  EC50: 0.118 µM (active)
[8]
  EC50: < 0.16 µM (active)
[9]
  EC50: 0.14 µM (active)
cells
  EC50: 0.083 µM (active)
[10]
  AC50: > 70 µM (inactive)
[11]
  EC50: < 0.1 µM (active)
[12]
  AC50: < 0.26 µM (active)
[13]
  EC50: < 0.1 µM (active)
[14]
  AC50: 29.8 µM (active)

## Cc1ccc(-c2cnn3c(N4CCOCC4)cc(C)nc23)cc1
[15]
  AC50: > 52 µM (inactive)
HEK293
  IC50: > 67.5 µM (inactive)
[16]
  AC50: 17.4 µM (active)
[17]
  AC50: 23.6 µM (active)
[18]
  IC50: > 67.5 µM (inactive)

## Nc1nc(NCCCN2CCOCC2)nc(Nc2ccc(F)cc2)c1[N+](=O)[O-]
[19]
  AC50: 1.25 µM (active)
[20]
  AC50: 0.406 µM (active)

## NCCNS(=O)(=O)c1cccc2cnccc12
[21]
  AC50: 12.6 µM (inconclusive)

## Brc1ccccc1C1Nc2cccc3cccc(c23)N1
Beta-arrestin-1
  IC50: 2.94 µM (inactive)
Streptokinase A
  EC50: > 150 µM (not active)
Streptococcus
  EC50: 14.2 µM (active)
[22]
  EC50: 9.74 µM (active)

## NC(=O)c1ccccc1NCC(=O)c1ccc(Cl)cc1
Beta-galactosidase
  EC50: > 40 µM (inactive)
[23]
  IC50: 7.41 µM (active)
DNA topoisomerase
  AC50: 7.76 µM (active)
